Molecular target: HER2 (Homo sapiens, UniProt P04626)
Test: DiscoverX scanELECT competition binding at […]

HER2, sequence (P04626 720-987 limits assumed): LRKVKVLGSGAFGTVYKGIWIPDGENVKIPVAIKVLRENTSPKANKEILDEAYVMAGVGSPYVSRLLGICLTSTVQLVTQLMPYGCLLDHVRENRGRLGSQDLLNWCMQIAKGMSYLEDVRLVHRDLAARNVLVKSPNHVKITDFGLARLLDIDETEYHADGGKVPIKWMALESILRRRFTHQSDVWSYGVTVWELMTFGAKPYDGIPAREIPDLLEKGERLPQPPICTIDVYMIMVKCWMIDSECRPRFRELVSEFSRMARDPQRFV

% control at 1 μM: 0
SMILES: CS(=O)(=O)CCNCc1ccc(-c2ccc3ncnc(Nc4ccc(OCc5cccc(F)c5)c(Cl)c4)c3c2)o1 [lapatinib]

Reference: paper PMC6110523 (Biochemistry, 2018)
